Holding throughout (format): in vivo
In one series the test system is Ctenocephalides felis. Nature of the series: Ctenocephalides felis-test (CTECFE). The note with it: application rate 100 ppm in cattle blood; adult unfed fleas; after 2 days. As to the method:
(§1) Solvent: dimethyl sulfoxide
To produce a suitable preparation of active compound, 10 mg of active compound are dissolved in 0.5 ml solvent, and the concentrate is diluted with cattle blood to the desired concentration. Approximately 20 adult unfed (Ctenocephalides felis) are placed in flea chambers. The blood chamber, sealed with parafilm on the bottom, are filled with cattle blood supplied with compound solution and placed on top of the flea chamber, so that the fleas are able to suck the blood. The blood chamber is heated to 37° C. whereas the flea chamber is kept at room temperature. After 2 days mortality in % is determined. 100% means that all the fleas have been killed; 0% means that none of the fleas have been killed.

Series [1] relates to Two-spotted spider mite (Tetranychus urticae). Nature of the series: Test against two-spotted spider mite (Tetranychus urticae), spray. The following applies: active compound concentration 100 ppm; adult mites on kidney bean, sprayed; after 7 days. How it is done: (§2) Unless described otherwise, the test solutions were prepared as follows:
(§3) The active compound, 1 part by weight of the active compound was admixed with the solvent in the above described amount which contains the emulsifying agent in the above described amount. The mixture was then diluted with water to specific concentration.
(§4) In order to prepare the test solution containing the active compound, 1 part by weight of the active compound was admixed with 3 parts by weight of the solvent dimethyl formamide which contains 1 part by weight of the emulsifying agent polyoxyethylene alkylphenyl ether. This mixture is then diluted with water to the specific concentration.
(§5) Solvent: dimethyl formamide, 3 parts by weight; emulsifying agent: polyoxyethylene alkylphenyl ether, 1 part by weight
50 to 100 adult mites of Tetranychus urticae were inoculated to leaves of kidney bean at two-leaf stage planted in a pot of 6 cm in diameter. After one day, test solution at the appropriate concentration was sprayed thereon in a sufficient amount using a spray gun. After the spraying, the plant pot was placed inside a greenhouse, and after 7 days, the acaricidal activity was calculated. An acaricidal activity of 100% means that all mites were killed, whereas an acaricidal activity of 0% means that no mite was killed.

Series [2] has as its system Tobacco cutworm (Spodoptera litura) larvae. Description: Test against tobacco cutworm (Spodoptera litura) larvae, leaf dip. The note with it: active compound concentration 100 ppm; third instar larvae on dipped sweet potato leaves; after 7 days. How it is done: as §2, §3, §4, §5
Leaves of sweet potato were immersed in the test solution at the appropriate concentration, and the leaves were dried in air. The leaves were then placed in a petri dish having a diameter of 9 cm, and ten Spodoptera litura at third instar larvae were released therein. The petri dishes were placed in a temperature-controlled chamber at 25° C. After 2 days and 4 days more sweet potato leaves were added. After 7 days, the number of dead larvae was counted to calculate the insecticidal activity. An insecticidal activity of 100% means that all larvae were killed, whereas an insecticidal activity of 0% means that no larva was killed. In the current test, the results of two petri dishes for each treatment were averaged.

Series [3] relates to Cucurbit leaf beetle (Aulacophora femoralis). Description: Test against cucurbit leaf beetle (Aulacophora femoralis), leaf dip. The note with it: active compound concentration 100 ppm; second instar larvae on dipped cucumber leaves; after 7 days. How it is done: as §2, §3, §4, §5
Leaves of cucumber were immersed in the test solution at the appropriate concentration, and the leaves were dried in air. The leaves were then put in a plastic cup containing sterilized black soil and five Aulacophora femoralis at second instar larvae were released in the cup. The cups were placed in a temperature-controlled chamber at 25° C. After 7 days, the number of dead larvae was counted, and thus the insecticidal activity was calculated. An insecticidal activity of 100% means that all larvae were killed, whereas an insecticidal activity of 0% means that no larva was killed.

The next series concerns Musca domestica. Description: Musca domestica-test. The following applies: application rate 100 ppm; adults, sugar/compound soaked sponge; after 2 days. How it is done: as §1
To produce a suitable preparation of active compound, 10 mg of active compound are dissolved in 0.5 ml solvent, and the concentrate is diluted with water to the desired concentration. Prior to the assay, a piece of kitchen sponge is soaked with a mixture of sugar and compound solution and placed into a container. 10 adults (Musca domestica) are placed into the container and closed with a perforated lid. After 2 days mortality in % is determined. 100% means that all the flies have been killed; 0% means that none of the flies have been killed.

The values that follow come from patent US20110152332A1, “Pesticidal Heterocyclic Compounds” (Bayer CropScience AG, priority 2009, published 2011).

The structures appear in SMILES notation.

Turning to `O=C(CC(F)(F)F)NCc1ccc(N2CC(c3cc(Cl)cc(Cl)c3)(C(F)(F)F)OC2=O)cc1C(F)(F)F` (stereo not drawn) [Compound 1-7], the “activity (mortality in %)” value with Ctenocephalides felis amounted to 95%. Also, in series [1], the acaricidal activity was determined as 100%. Further, the insecticidal activity in series [2] and in series [3] was 100% throughout.
With `CCC(=O)NCc1ccc(N2CC(c3cc(Cl)c(Cl)c(Cl)c3)(C(F)(F)F)OC2=O)cc1` (stereo not drawn) [Compound 1-59], the “activity (mortality in %)” value in the series on Ctenocephalides felis was 95%. The insecticidal activity in series [2] and in series [3] was 100% in each case.
`CCC(=O)NCc1ccc(N2CC(c3cccc(C(F)(F)F)c3)(C(F)(F)F)OC2=O)cc1C(F)(F)F` (stereo not drawn) [Compound 1-73]: the insecticidal activity in series [2] and in series [3] was 100% in each case. The “activity (mortality in %)” value with Musca domestica came out at 80%.
For the compound `CS(=O)(=O)CC(=O)NCc1ccc(N2CC(c3cc(C(F)(F)F)cc(C(F)(F)F)c3)(C(F)(F)F)OC2=O)cc1C(F)(F)F` (stereo not drawn) [Compound 1-136], in series [1], the acaricidal activity amounted to 100%. The insecticidal activity in series [2] and in series [3] was 100% throughout.
As to `O=C(NCc1ccc(N2CC(c3cc(C(F)(F)F)cc(C(F)(F)F)c3)(C(F)(F)F)OC2=O)cc1Cl)C1CC1` (stereo not drawn) [Compound 1-145], the “activity (mortality in %)” value in the series with Ctenocephalides felis is 95%; in the series on Musca domestica it was 80%. In series [1], this compound registered an acaricidal activity of 100%. Further, the insecticidal activity in series [2] and in series [3] was 100% in each case.
With `O=C(CC(F)(F)F)NCc1ccc(N2CC(c3cc(C(F)(F)F)cc(C(F)(F)F)c3)(C(F)(F)F)OC2=O)cc1Cl` (stereo not drawn) [Compound 1-147], the “activity (mortality in %)” value in the series on Ctenocephalides felis was determined as 95%. For the same compound, the acaricidal activity in series [1] turned out to be 100%. Further, the insecticidal activity in series [2] and in series [3] was 100% in each case.
For the compound `Cc1cc(N2CC(c3cc(C(F)(F)F)cc(C(F)(F)F)c3)(C(F)(F)F)OC2=O)ccc1CNC(=O)C1CC1` (stereo not drawn) [Compound 1-159], the “activity (mortality in %)” value in the series with Ctenocephalides felis was found to be 95%; in the series with Musca domestica, 90%. For the same compound, the insecticidal activity in series [2] and in series [3] was 100% each time.
As for `Cc1cc(N2CC(c3cc(C(F)(F)F)cc(C(F)(F)F)c3)(C(F)(F)F)OC2=O)ccc1CNC(=O)CC(F)(F)F` (stereo not drawn) [Compound 1-161], the “activity (mortality in %)” value with Ctenocephalides felis is recorded as 80%. Besides, the insecticidal activity in series [2] and in series [3] was 100% each time.
`Cc1cc(N2CC(c3cc(C(F)(F)F)cc(C(F)(F)F)c3)(C(F)(F)F)OC2=O)ccc1CNC(=O)C[S+](C)[O-]` (stereo not drawn) [Compound 1-163]: the “activity (mortality in %)” value in the series with Ctenocephalides felis was found to be 80%.
Regarding `C[C@H](NC(=O)C1CC1)c1ccc(N2CC(c3cc(Cl)c(Cl)c(Cl)c3)(C(F)(F)F)OC2=O)cc1` (stereo partly drawn) [Compound 1-373-a], in series [1], the acaricidal activity stood at 100%. Further, the insecticidal activity in series [2] and in series [3] was 100% throughout.
For `CCC(=O)NC1CCc2cc(N3CC(c4cc(Cl)c(Cl)c(Cl)c4)(C(F)(F)F)OC3=O)ccc21` (stereo not drawn) [Compound 4-31], in series [1], the acaricidal activity is 100%. In addition, the insecticidal activity in series [2] and in series [3] was 100% in each case.
`O=C(NC1CCc2cc(N3CC(c4cc(Cl)c(Cl)c(Cl)c4)(C(F)(F)F)OC3=O)ccc21)C1CC1` (stereo not drawn) [Compound 4-33] returned an acaricidal activity in series [1] of 100%. In addition, the insecticidal activity in series [2] and in series [3] was 100% throughout.
`O=C(CC1CC1)NC1CCc2cc(N3CC(c4cc(Cl)c(Cl)c(Cl)c4)(C(F)(F)F)OC3=O)ccc21` (stereo not drawn) [Compound 4-34]: in series [1], the acaricidal activity is recorded as 100%. Also, the insecticidal activity in series [2] and in series [3] was 100% throughout.
For `O=C(CC(F)(F)F)NC1CCc2cc(N3CC(c4cc(Cl)c(Cl)c(Cl)c4)(C(F)(F)F)OC3=O)ccc21` (stereo not drawn) [Compound 4-35], the acaricidal activity in series [1] came to 100%. Moreover, the insecticidal activity in series [2] and in series [3] was 100% in each case.
